Laboratory results as given in patent US8217189B2, “Chromenone potassium channel blockers and uses thereof” (Bionomics Limited, priority 2006, dated 2012).

Target: T1, human Kv1.3 ion channel (Homo sapiens, UniProt P22001)
T1 construct: Human Jurkat cells (which endogenously express hKv1.3) were used in place of rat L929 cells; endogenous in cells; host or cells: human Jurkat cells
Experiment: Inhibition of Kv1.3 currents, planar patch clamp in human Jurkat cells
Format: cell-based
Conditions: Jurkat cells endogenously expressing hKv1.3, averaged dose response data from 3 or more cells
Description: Potency of compounds to inhibit the human Kv1.3 ion channel were determined as follows:
EC50 values for inhibition of Kv1.3 currents were determined by the method according to Schmitz et al (2005) Molecular Pharmacology 68, 1254-1270 with the following differences:
1. Human Jurkat cells (which endogenously express hKv1.3) were used in place of rat L929 cells.
2. All electrophysiology was performed using planar patch clamp (Port-A-Patch, Nanion Technologies Gmbh, Munich) in contrast to conventional patch clamp.
3. EC50 values shown were determined from averaged dose response data obtained from 3 or more cells.

T1 sequence (P22001 whole entry): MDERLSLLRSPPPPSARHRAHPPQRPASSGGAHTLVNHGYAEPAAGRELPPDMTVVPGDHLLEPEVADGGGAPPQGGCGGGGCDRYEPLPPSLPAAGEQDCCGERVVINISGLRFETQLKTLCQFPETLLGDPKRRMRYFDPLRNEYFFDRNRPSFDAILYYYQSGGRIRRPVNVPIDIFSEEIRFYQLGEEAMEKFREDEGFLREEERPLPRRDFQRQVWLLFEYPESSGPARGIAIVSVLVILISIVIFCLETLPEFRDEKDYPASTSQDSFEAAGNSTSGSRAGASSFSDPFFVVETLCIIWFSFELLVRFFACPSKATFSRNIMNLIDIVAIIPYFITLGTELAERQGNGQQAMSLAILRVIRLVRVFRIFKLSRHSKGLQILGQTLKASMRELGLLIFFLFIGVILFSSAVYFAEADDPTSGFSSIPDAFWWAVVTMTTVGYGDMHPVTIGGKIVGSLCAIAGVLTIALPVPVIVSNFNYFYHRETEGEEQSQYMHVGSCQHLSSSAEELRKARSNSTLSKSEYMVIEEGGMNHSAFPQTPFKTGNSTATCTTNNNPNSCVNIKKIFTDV

SMILES	EC50 [nM]
COc1c2ccoc2c(OCCCc2ccccc2)c2oc(CN(C)C)cc(=O)c12 [7 c)]	270
Cc1c2ccoc2c(OCCCc2ccccc2)c2oc(CN(C)C)cc(=O)c12 [Example 2, 7-Dimethylaminomethyl-4-methyl-9-(3-phenylpropoxy)furo[3,2-g]chromen-5-one]	29
Cc1c2ccoc2c(OCCCc2ccccc2)c2oc(CN3CCOCC3)cc(=O)c12 [Example 3, 4-Methyl-7-(morpholin-4-ylmethyl)-9-(3-phenylpropoxy)furo[3,2-g]chromen-5-one]	190
Cc1c2ccoc2c(OCCCc2ccccc2)c2oc(CS(C)(=O)=O)cc(=O)c12 [Example 9, 7-Methanesulfonylmethyl-4-methyl-9-(phenyl-propoxy)-furo[3,2-g]chromen-5-one]	200
CSCc1cc(=O)c2c(C)c3ccoc3c(OCCCc3ccccc3)c2o1 [1 c)]	30
Cc1c2ccoc2c(OCC[C@@H](C)c2ccccc2)c2oc(CN(C)C)cc(=O)c12 [8 d)]	14
CN(C)Cc1cc(=O)c2c(OCCCCOc3ccccc3)c3ccoc3cc2o1 [Example 5, 7-Dimethylaminomethyl-4-(4-phenoxybutoxy)-furo[3,2-g]chromen-5-one]	1420
Cc1c2ccoc2c(OCCCc2ccc(F)cc2)c2oc(CN(C)C)cc(=O)c12 [6 c)]	28
